Our source for the Activity values is ChEMBL document CHEMBL1150017, “A convenient synthesis of sulfated and sialyl oligosaccharides as potential ligands for CD22 adhesion protein” (Bioorg Med Chem Lett, 1995).

Active and inactive are the calls of the source. No cut-off for these calls is given here.

For test [1], the target named is B-cell receptor CD22 (Homo sapiens) (UniProt P20273). Nature of the test: Binding affinity against CD22 adhesion protein in ELISA competition assay;no effect.
The target is the same in test [2]. Nature of the test: Binding affinity against CD22 adhesion protein; no effect.
For test [3] the target is unchanged. The test can be described thus: Binding affinity against CD22 adhesion protein;no effect.

B-cell receptor CD22 (Homo sapiens), sequence (P20273 whole entry): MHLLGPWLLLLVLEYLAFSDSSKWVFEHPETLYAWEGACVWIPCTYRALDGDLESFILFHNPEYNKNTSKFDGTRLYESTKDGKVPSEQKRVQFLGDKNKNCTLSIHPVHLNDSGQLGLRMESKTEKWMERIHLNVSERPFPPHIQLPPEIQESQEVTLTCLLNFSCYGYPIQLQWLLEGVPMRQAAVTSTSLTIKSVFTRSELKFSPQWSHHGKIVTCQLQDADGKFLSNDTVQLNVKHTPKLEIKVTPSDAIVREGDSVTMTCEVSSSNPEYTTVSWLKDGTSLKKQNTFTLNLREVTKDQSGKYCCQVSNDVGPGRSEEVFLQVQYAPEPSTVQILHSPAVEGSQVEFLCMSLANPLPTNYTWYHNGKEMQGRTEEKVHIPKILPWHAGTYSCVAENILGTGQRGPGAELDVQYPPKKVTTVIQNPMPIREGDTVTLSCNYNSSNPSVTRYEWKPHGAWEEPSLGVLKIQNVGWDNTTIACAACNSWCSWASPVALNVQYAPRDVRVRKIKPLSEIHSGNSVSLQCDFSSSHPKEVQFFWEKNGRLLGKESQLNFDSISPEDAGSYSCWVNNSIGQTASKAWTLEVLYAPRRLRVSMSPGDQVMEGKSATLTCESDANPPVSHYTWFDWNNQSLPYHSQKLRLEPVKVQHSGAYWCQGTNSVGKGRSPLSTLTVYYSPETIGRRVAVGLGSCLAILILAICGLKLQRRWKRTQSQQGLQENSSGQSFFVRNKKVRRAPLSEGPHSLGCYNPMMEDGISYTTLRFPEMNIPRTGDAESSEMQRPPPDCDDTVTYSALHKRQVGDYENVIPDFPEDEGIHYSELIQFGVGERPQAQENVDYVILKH

On to `CC(=O)N[C@@H]1[C@@H](O)C[C@](OC[C@H]2O[C@@H](Oc3ccc([N+](=O)[O-])cc3)[C@H](NC(C)=O)[C@@H](O[C@@H]3O[C@H](COS(=O)(=O)O)[C@H](O)[C@H](O)[C@H]3O)[C@@H]2O)(C(=O)O)O[C@H]1C(O)C(O)CO` (stereo partly drawn), for which, in test [1], the outcome was inactive.
As for `O=C(CBr)OCC1OC(Br)C(OC(=O)c2ccccc2)C(OC(=O)c2ccccc2)C1OC(=O)c1ccccc1` (stereo not drawn), the result in test [2] was inactive.
Regarding `CC(=O)OCC1OC(Br)C(OC(C)=O)C(OC(=O)CCl)C1OC(C)=O` (stereo not drawn), the result in test [3] was inactive.
On the same count and under the same terms, the value for `CC(=O)N[C@@H]1[C@@H](Oc2ccccc2[N+](=O)[O-])O[C@@H](COS(=O)(=O)O)[C@H](O)[C@@H]1O[C@@H]1O[C@@H](COS(=O)(=O)O)[C@H](O)[C@H](O)[C@@H]1O` was “inactive”; that for `CC(=O)N[C@@H]1[C@@H](Oc2ccccc2[N+](=O)[O-])O[C@@H](CO)[C@H](O)[C@@H]1O[C@@H]1O[C@@H](COS(=O)(=O)O)[C@H](O)[C@H](O)[C@@H]1O` was “inactive”.
Consider `CC(=O)N[C@@H]1[C@@H](O)C[C@](OC[C@H]2O[C@@H](Oc3ccc([N+](=O)[O-])cc3)[C@H](NC(C)=O)[C@@H](O[C@@H]3O[C@H](CO)[C@H](O)[C@H](O)[C@H]3O)[C@@H]2O)(C(=O)O)O[C@H]1C(O)C(O)CO` (stereo partly drawn), for which, in test [1], the result was inactive.
With `CC(=O)N[C@@H]1[C@@H](O)C[C@](OC[C@H]2O[C@H](Oc3ccccc3[N+](=O)[O-])[C@H](NC(C)=O)[C@@H](O[C@@H]3O[C@H](COS(=O)(=O)O)[C@H](O)[C@H](O)[C@H]3O)[C@H]2O)(C(=O)O)O[C@H]1C(O)C(O)CO` (stereo partly drawn), the outcome in test [3] was inactive.
Turning to `CC(=O)N[C@@H]1[C@@H](Oc2ccccc2[N+](=O)[O-])O[C@@H](CO)[C@H](O)[C@@H]1O[C@@H]1O[C@@H](CO)[C@H](O)[C@H](OS(=O)(=O)O)[C@@H]1O`, in test [3], the outcome was inactive.
